From patent US8143403B2 (Bristol-Myers Squibb Company, priority 2008, dated 2012)
Marks after values point to notes of the source that are not given here.

Tested on: CGRP-induced increase in laser Doppler facial blood flow
Test: Inhibition of CGRP-induced increase in laser Doppler facial blood flow in non-human primate
Type: in vivo, common marmoset (Callithrix jacchus)
Settings: pretreat −30 min, hαCGRP 10 μg/kg i.v.
Protocol: FIG. 4. […] Data are peak % change from baseline±sem, with each animal serving as its own control.
Saturation/Scatchard Analysis. […] Saturation data were analyzed using a one site binding equation to estimate apparent equilibrium dissociation constant (Kd) and the maximum number of binding sites (Bmax) (Prizm v4.0, Graphpad). […] Functional Antagonism/Schild analysis. Agonist stimulation of CGRP receptor complex leads to cyclic AMP (adenosine 3′5′-cyclic monophosphate) production via Gs-dependent activation of an adenylate cyclase (Juaneda C et al., TiPS, 2000; 21:432-438). Consequently, CGRP receptor antagonists inhibit CGRP-induced cyclic AMP formation in SK-N-MC cells which natively express the CGRP receptor complex (Doods H et al., Br J Pharmacol, 2000; 129(3):420-423). […] A Schild analysis format was used, which allowed investigation of the mechanism of antagonism. […] Various concentrations of CGRP were added and the cells were allowed to incubate 30 min at room temperature. The cells were lysed with lysis reagent and cAMP concentrations were determined by HTRF according to the manufacturer's instructions. A standard curve using known quantities of cAMP was evaluated in parallel to allow conversion of HTRF ratio to nM cAMP. The resulting curves were then evaluated using a Gaddum/Schild equation individually and with global fitting (Prizm v4.0, Graphpad). […] To obtain a global fit the following parameters were shared (top, bottom, logEC50, Hill slope and pA2) and all curves were fit simultaneously. […] Non-Terminal Method for Assessing In Vivo Efficacy of Small Molecule CGRP-Receptor Antagonists in Mammals Overview. […] Non-human primates (e.g., marmosets) are the only animals known to have human-like CGRP receptor pharmacology conferred by the presence of the specific amino acid residue (Trp74) in their RAMP1 sequence which is responsible for the phenotype of the human receptor (Mallee et al. J Biol Chem 2002 277:14294). Since current migraine models primarily use rats (Escott et al. Brain Res 1995 669:93; Williamson et al. Cephalalgia 1997 17:525), or are invasive, terminal procedures in primates (Doods et al. Br J Pharmacol 2000 129:420), a novel non-invasive, survival model in non-human primates for in vivo efficacy assessment of CGRP-receptor antagonists was developed. […] Peptide and small-molecule CGRP-receptor antagonists were used to validate the non-human primate model. […] Animals. Adult male and female common marmosets (Callithrix jacchus) purchased from Harlan and weighing 350-550 g served as subjects. Anesthesia & Surgical Preparation. Animals are anesthetized by isoflurane inhalation in an induction chamber (4-5% rapid induction, maintained with 1-2.5%; Solomon et al., 1999).

O=C(O[C@@H]1CC[C@@H](c2cccc(F)c2F)Cc2cccnc21)N1CCC(n2c(=O)[nH]c3ncccc32)CC1 [Example 20]
% Inhibition (0.1 mg/kg s.c., 15 min): 9.9% | % Inhibition (0.1 mg/kg s.c., 60 min): −6.7% | % Inhibition (0.1 mg/kg s.c., 105 min): −4.9% | % Inhibition (0.3 mg/kg s.c., 15 min): 28.8% | % Inhibition (0.3 mg/kg s.c., 60 min): 27.6* % | % Inhibition (0.3 mg/kg s.c., 105 min): 41.2* % | % Inhibition (3 mg/kg s.c., 15 min): 26.5% | % Inhibition (3 mg/kg s.c., 60 min): 36.7* % | % Inhibition (3 mg/kg s.c., 105 min): 39.0* % | % Inhibition (7 mg/kg s.c., 15 min): 25.1% | % Inhibition (7 mg/kg s.c., 60 min): 53.9* % | % Inhibition (7 mg/kg s.c., 105 min): 70.0* %
